Measured values taken from patent US10208007B2, “Use of strigolactones and strigolactone analogs for treating proliferative conditions” (The State of Israel, Ministry of Agriculture & Rural …, priority 2011, dated 2019).

Legend:
[1] = test system: U20S cells; assay: Strigolactone analog induced gene expression changes; type: cell-based, human; conditions: 5 ppm
Protocol: To further elucidate the transcriptional program by which strigolactone analogs may affect growth and survival of cancer cells, U20S cells were treated with ST-362 or MEB-55 (5 ppm) for either 6 or 24 hours to permit early and late gene expression changes to be distinguished. U20S cells were selected based on their enhanced sensitivity to strigolactone treatment (see FIG. 7). […] Up-regulation of cytokines (CCL3L3, GDF15) and growth factors (PGF), and down-regulation of TGFBR11 was also noted. Apoptosis regulating genes were also identified, including DDIT3, BIRC3 and BAG3. DDIT3 encodes a member of the CCAAT/enhancer-binding protein (C/EBP) family of transcription factors and functions as a dominant-negative inhibitor by forming heterodimers with other C/EBP members and preventing their DNA binding activity. DDIT3 is induced by stress, including DNA damage and DDIT3 over-expression can induce cell cycle arrest. After 6 hours, MEB-55 treatment was associated with increased expression of p21cip (CDKN1A), Cyclin F (CCNF), Cyclin A2 (CCNA2) and decreased expression of CDK6, whereas ST-362 induced only a modest down-regulation of Cyclin B1 (CCNB1). Therefore, changes in the expression profile of cell cycle regulators, was not a global hallmark of strigolactone exposure. The only exception was Cyclin G2 (CCNG2) whose expression was elevated in both ST-362 and MEB-55 treatment groups. Cyclin G2 is an unconventional cyclin homolog which is linked to growth inhibition and whose expression is induced by DNA damaging chemotherapeutics.

[2] = test system: Saccharomyces cerevisiae; assay: Yeast cell culture growth (OD); type: cell-based
Protocol: Saccharomyces cerevisiae and Candida oleophila yeast cells were grown overnight in a reach nutrient media at 28° C., at 150 rpm. Following, they were diluted to 0.4 OD in low nutrient media (Lily) and were divided into 96 wells. The cells were treated with GR-24 or ST-362, at the indicated concentrations. Cell culture growth was monitored every hour for 17 hours, at 28° C., with gentle shake before each OD read. OD was determined using fluorometer. Statistical differences between curves were analyzed using compareGrowthCurves function from the Statistical Modeling package, statmod (http://bioinf.wehi.edu.au/software/compareCurves/), significance was determined once P≤0.05.

[3] = test system: Arabidopsis thaliana wild type root tips; assay: Root-tip structure and cellular morphology; type: in vivo; conditions: WT seedlings
Protocol: Seeds of homozygous lines of Arabidopsis thaliana wild type (WT; Columbia; Col-0) and max2-1 mutant (http://abrc.osu.edu/) were surface-sterilized and germinated on 1/2 Murashige and Skoog (MS) plates supplemented with 1% sucrose and solidified with 0.7% agar. Plates were incubated vertically in the dark at 4° C. for two days to synchronize germination. Three days after germination, seedlings were gently transferred using forceps to 1/2 MS plates containing various concentrations of GR-24 as a mixture of four diastereomers: (±)-GR-24 and (±)-2′-epi-GR-24. The root tip of the transferred seedling was marked on the plates. The plates remained unsealed to prevent accumulation of gases (e.g., ethylene), and were positioned in an upright 45° position, and incubated at 22° C. with a light intensity of […] m-2 s-1 provided by white fluorescent tubes and under a photoperiod of 16 hours exposure to light/8 hours in the dark for 6-12 days. […] GR-24, ST-357 and ST-362 were initially dissolved in acetone to give a 4.5 mM, 10 μM and 10 μM solutions, respectively, which were then further diluted with double-distilled sterile water (DDW). […] Where differences were recorded between non-treated and acetone controls, the comparison was made between GR-24, ST-357 and ST-362-treated and acetone-treated roots. […]

## CC1=CC(O/C=C2\Cc3c(n(C)c4cc(-c5cccs5)ccc34)C2=O)OC1=O (racemic) [MEB-55, (±) 2E-4-methyl-2-(4-methyl-5-oxo-2,5-dihydrofuran-2-yloxymethylene)-6-thiophen-2-yl-1,4-dihydro-2H-cyclopenta[b]indol-3-one]
[1]; 6 hours
  Fold-Change ABCB1: 8.1 fold
  Fold-Change AHSA1: 2.6 fold
  Fold-Change ALDH1B1: −3.1 fold
  Fold-Change ATF3: 4.0 fold
  Fold-Change BAG3: 7.7 fold
  Fold-Change BIRC3: −3.2 fold
  Fold-Change CCNG2: 3.1 fold
  Fold-Change CLDN12: 2.5 fold
  Fold-Change CYP24A1: −3.6 fold
  Fold-Change DDIT3: 14.1 fold
  Fold-Change FGF2: 2.1 fold
  Fold-Change FOXD1: −2.7 fold
  Fold-Change FOXO4: 2.2 fold
  Fold-Change GDF15: 19.0 fold
  Fold-Change GEM: 4.9 fold
  Fold-Change HSPA1A: 12.4 fold
  Fold-Change HSPA1B: 12.4 fold
  Fold-Change HSPA1L: 3.9 fold
  Fold-Change HSPA6: 158.7 fold
  Fold-Change HSPA7: 55.7 fold
  Fold-Change HSPB8: 3.6 fold
  Fold-Change PGF: 7.0 fold
  Fold-Change PPP1R15A: 3.7 fold
  Fold-Change PTGS2: 6.9 fold
  Fold-Change SLC3A2: 3.4 fold
  Fold-Change SLC7A11: 2.1 fold
  Fold-Change SLC44A2: 2.1 fold
  Fold-Change TGFBR2: −2.3 fold
[1]; 24 hours
  Fold-Change ABCA13: −2.6 fold
  Fold-Change AMPH: −2.7 fold
  Fold-Change BIRC3: 2.4 fold
  Fold-Change CCL20: 11.9 fold
  Fold-Change CTGF: 2.1 fold
  Fold-Change CYR61: 2.2 fold
  Fold-Change DHRS2: −2.3 fold
  Fold-Change DUSP5: 3.8 fold
  Fold-Change E2F2: −2.2 fold
  Fold-Change EGR1: 2.7 fold
  Fold-Change ESM1: 21.2 fold
  Fold-Change GDF15: 2.2 fold
  Fold-Change HSPA5: −2.1 fold
  Fold-Change ITGA2: 3.6 fold
  Fold-Change KIF20A: −2.4 fold
  Fold-Change LAMA1: 2.1 fold
  Fold-Change RN7SK: 15.3 fold
  Fold-Change SCG5: 4.9 fold
  Fold-Change SLC7A11: 4.1 fold
  Fold-Change SNORD3A: 4.2 fold
  Fold-Change SNORD3C: 4.8 fold
  Fold-Change SNORD3D: 4.8 fold
  Fold-Change SPP1: 6.6 fold
  Fold-Change TGFBI: −2.0 fold

## CC1=CC(O/C=C2/C(=O)c3c(c4cc(-c5scc6c5OCCO6)ccc4n3C)C2C)OC1=O (stereo not shown) [ST-362, (2E)-2-[(2,5-dihydro-4-methyl-5-oxofuran-2-yloxy)methylene]-1,2-dihydro-7-(2,3-dihydrothieno[3,4-b][1,4]dioxin-7-yl)-1,4-dimethyl-cyclopenta[b]indole-3-(4H)-one]
[1]; 6 hours
  Fold-Change ABCB1: 3.6 fold
  Fold-Change AHSA1: 2.1 fold
  Fold-Change ALDH1B1: −2.1 fold
  Fold-Change ATF3: 2.2 fold
  Fold-Change BAG3: 4.6 fold
  Fold-Change BIRC3: −2.4 fold
  Fold-Change CCL3L3: 3.7 fold
  Fold-Change CCNB1: −2.1 fold
  Fold-Change CCNG2: 3.6 fold
  Fold-Change CLDN12: 2.3 fold
  Fold-Change CYP24A1: −2.6 fold
  Fold-Change DDIT3: 6.2 fold
  Fold-Change FOXD1: −2.4 fold
  Fold-Change FOXO4: 2.5 fold
  Fold-Change GDF15: 7.6 fold
  Fold-Change GEM: 2.4 fold
  Fold-Change HSPA1A: 7.3 fold
  Fold-Change HSPA1B: 9.2 fold
  Fold-Change HSPA1L: 2.7 fold
  Fold-Change HSPA6: 79.8 fold
  Fold-Change HSPA7: 23.3 fold
  Fold-Change HSPB8: 2.7 fold
  Fold-Change PGF: 6.2 fold
  Fold-Change PPP1R15A: 2.7 fold
  Fold-Change PTGS2: 3.4 fold
  Fold-Change SLC3A2: 3.6 fold
  Fold-Change SLC7A11: 2.2 fold
  Fold-Change SLC31A2: 2.3 fold
  Fold-Change SLC44A2: 2.5 fold
  Fold-Change TGFBR2: −2.0 fold
[1]; 24 hours
  Fold-Change ABCA13: −2.8 fold
  Fold-Change AMPH: −3.5 fold
  Fold-Change BIRC3: 2.6 fold
  Fold-Change CCL20: 6.6 fold
  Fold-Change CCNB1: −2.2 fold
  Fold-Change CCNG2: 2.7 fold
  Fold-Change CTGF: 2.4 fold
  Fold-Change CYR61: 3.6 fold
  Fold-Change DHRS2: −2.5 fold
  Fold-Change DUSP5: 3.9 fold
  Fold-Change E2F2: −3.3 fold
  Fold-Change EGR1: 2.2 fold
  Fold-Change ESM1: 6.9 fold
  Fold-Change GDF15: 4.2 fold
  Fold-Change HSPA5: −2.8 fold
  Fold-Change ITGA2: 3.4 fold
  Fold-Change KIF20A: −4.7 fold
  Fold-Change LAMA1: 3.0 fold
  Fold-Change RN7SK: 16.8 fold
  Fold-Change SCG5: 3.0 fold
  Fold-Change SLC7A11: 3.6 fold
  Fold-Change SNORD3A: 4.1 fold
  Fold-Change SNORD3C: 4.0 fold
  Fold-Change SNORD3D: 4.8 fold
  Fold-Change SPP1: 3.9 fold
  Fold-Change TGFBI: −3.4 fold
[2]; apparent from the time of application
  Concentrations giving a significant reduction in cell culture growth: ≥ 0.1 µM

## CC1=C[C@H](O/C=C2/C(=O)O[C@@H]3c4ccccc4C[C@H]23)OC1=O (relative stereo) [GR-24, (3aR*,8bS*,E)-3-(((R*)-4-methyl-5-oxo-2,5-dihydrofuran-2-yloxy)methylene)-3,3a,4,8b-tetrahydro-2H-indeno[1,2-b]furan-2-one]
[3]; 13.5 μM exogenously supplied
  Root tip morphology: deformation of the root tips
[3]; 27 μM
  Starch granules in the columella cells: abolished the starch granules
[2]; apparent 8 hours after application, 17 hours monitoring
  Cell culture growth: significant reduction in cell culture growth
